Literature values as cited in patent US9370492B2, “Solid pharmaceutical dosage forms comprising bisphosphonates and modified amino acid carriers” (EMISPHERE TECHNOLOGIES, INC., priority 2005, dated 2016).
Counter-ions that a name gives are not always drawn.

- solubility in organic solvents (organic solvents): practically insoluble
- solubility in water (water): freely soluble
Compound: CCCCCN(C)CCC(O)(P(=O)(O)O)P(=O)(O)O [Ibandronate sodium, 3-(N-methyl-N-pentyl)amino-1-hydroxypropane-1,1-diphosphonic acid, monosodium salt, monohydrate]
